Results on eleven compounds are retold here after EPA's ToxValDB 9.5.

Several values for one entry are separate records, joined by “and”; a condition that tells them apart may be missing. Equal values may be shown once.

Data set [1] concerns Mus musculus. The settings on record: oral, gavage, M/F.
Data set [2] concerns Mus musculus. Particulars: oral.
The test system of data set [3] is Rattus norvegicus. The settings on record: oral.
The subject of data set [4] is Rattus norvegicus. The settings on record: oral. This is another data set of the same source.
The subject of data set [5] is Rattus norvegicus. Particulars: subchronic.
Data set [6] relates to Rattus norvegicus. The settings on record: oral; for LEL / NOEL: developmental, M/F.
For data set [7], the system named is Rattus norvegicus. Particulars: Hershberger; duration: 10 days; oral; gavage; Sprague-Dawley; active + Negative + Antiandrogenic + anti-androgenic + significant decrease in serum testosterone at 800 (49% decrease at 400 NS) / ….
The test system of data set [8] is Rattus norvegicus. The settings on record: oral, diet, M/F.
The test system of data set [9] is Mus musculus. The settings on record: reproduction developmental, oral, generation: P0.
Data set [10] deals with Rattus norvegicus. Particulars: developmental, oral, gavage, generation: F1.
Setting [11] is: subchronic, M/F, hepatotoxicity.
Where [12] appears, read: chronic, duration: 2 years, diet, M/F, Crl:CD(SD), reduced weight gain.
Where [13] appears, read: duration: 2 years, diet, reduced body weight gain, reduced pup weight and parental food consumption.
[14] abbreviates: reduced pup weight and parental food consumption.
The mark [15] stands for this setting: subchronic, gavage, M, Induction of hepatic enzymes + liver histopathology.
Where [16] appears, read: developmental, gavage, M/F, Crl:CD(SD), During lactation periods f1 & f2: increased pup mortality, decreased pup viability & bodyweight, decreased lactation index, increased ….
[17] abbreviates: two-generation, gavage, M/F, Crl:CD(SD), During lactation periods f1 & f2: increased pup mortality, decreased pup viability & bodyweight, decreased lactation index, increased ….
[18] abbreviates: increased retinal folds in weanlings, reduced viability and lactation indices, reduced pup body weight, increased dead pups at birth.

By LOAEL is commonly meant the lowest dose or exposure tested at which an adverse effect was seen. What is called NOAEL is the highest tested level that showed no adverse finding. With `c1cc2c3c(cccc3c1)CC2` [Acenaphthene], the LOAEL was determined as 175 mg/kg-day with Mus musculus [1] (subchronic, duration: 90 days, CD1, hepatic) and 350 mg/kg-day in the data set on Mus musculus [2] (setting [11]). The NOAEL in the data set on Mus musculus [2] (setting [11]) turned out to be 175 mg/kg-day.

`CO[C@H]1C[C@H](O[C@@H]2/C(C)=C/C[C@@H]3C[C@@H](C[C@]4(CC[C@H](C)[C@@H](C5CCCCC5)O4)O3)OC(=O)[C@@H]3C=C(C)/C(=N/O)[C@H]4OC/C(=C\C=C\[C@@H]2C)[C@]43O)O[C@@H](C)[C@@H]1O` [Selamectin] displayed an NOAEL in the data set with Rattus norvegicus [3] (chronic, duration: 1 years, Increased liver and uterus/cervix weights) of 5 mg/kg-day.

In the data set with Rattus norvegicus [3] (setting [12]), `CN[C@@H]1[C@H](O[C@H]2[C@H](O[C@H]3[C@H](O)[C@@H](O)[C@H](N=C(N)N)[C@@H](O)[C@@H]3N=C(N)N)O[C@@H](C)[C@]2(O)CO)O[C@@H](CO)[C@H](O)[C@H]1O` [Dihydrostreptomycin] registered an LOEL of 10 mg/kg-day and an NOEL of 5 mg/kg-day.

For the compound `[Cr+3]` [Chromium (III)], the “NOEL (% CrO3)” value with Rattus norvegicus [4] (chronic, duration: 840 days, diet, None Observed) came out at 5. The LOAEL with Rattus norvegicus [5] (duration: 13 weeks, inhalation, nose only, M/F, Fisher 344/Crl BR VAF/Plus, respiratory) was 3 mg/m3.

For the compound `Nc1cc(Cl)cc(C(=O)O)c1Cl` [Chloramben], the LEL in the data set on Mus musculus [2] (chronic, duration: 18 months, diet, M/F, CD1, hepatocyte degeneration) is 15 mg/kg-day.

Compound `CCc1cccc(C)c1N(C(=O)CCl)C(C)COC` (centres undefined) [Metolachlor] registered an NOAEL in the data set on Rattus norvegicus [4] (chronic, duration: 2 years, diet, Whole body: Decreased weight gain) of 23.4 mg/kg-day. Further, in the data set on Rattus norvegicus [6] (setting [13]), the LEL was determined as 150 mg/kg-day and the NOEL stood at 15 mg/kg-day. Further, in the data set on Rattus norvegicus [6] (setting [14]), the LEL is 50 mg/kg-day and the NOEL turned out to be 15 mg/kg-day. Also, in the data set on Rattus norvegicus [7], the LOEL is 800 mg/kg-day and 500 mg/kg-day; the NOEL is 400 mg/kg-day and 300 mg/kg-day.

Turning to `Brc1cc(Oc2cc(Br)c(Br)c(Br)c2Br)c(Br)c(Br)c1Br` [Octabromodiphenyl ether], the NOAEL turned out to be 2.5 mg/kg-day in the data set on Rattus norvegicus [4] (subchronic, duration: 90 days, gavage, Liver: Histological changes); 1.1 mg/m3 in the data set on Rattus norvegicus [5] (duration: 13 weeks, inhalation, nose only, M/F, Crl:CD(SD) BR, endocrine); 2.51 mg/kg-day in the data set on Rattus norvegicus [6] (setting [15]). The LOAEL in the data set on Rattus norvegicus [6] (setting [15]) amounted to 5 mg/kg-day.

On to `OCCCl` [2-Chloroethanol], for which the NOAEL in the data set on Rattus norvegicus [8] (chronic, duration: 18 weeks, FDRL, Whole Body Effects) was 45 mg/kg-day.

In turn, `Brc1c(Br)c(Br)c(Oc2c(Br)c(Br)c(Br)c(Br)c2Br)c(Br)c1Br` [2,2',3,3',4,4',5,5',6,6'-Decabromodiphenyl ether] displayed an NOEL with Rattus norvegicus [4] (chronic, duration: 2 years, diet, Liver: Increased weight) of 1 mg/kg-day. The NOAEL worked out at 1.34 mg/kg-day in the data set with Mus musculus [1] (developmental, duration: 1 days, NMRI, developmental) and 2.22 mg/kg-day in the data set on Mus musculus [2] (developmental, gavage, neurobehavioral effects). The LOAEL in the data set with Rattus norvegicus [5] (duration: 8 weeks, oral, gavage, M, Sprague-Dawley, endocrine) stood at 0.05 mg/kg-day; with Mus musculus [2] (developmental, gavage, M, neurobehavioral effects), 20.1 mg/kg-day. Also, the LOEL came to 6 mg/kg-day in the data set on Mus musculus [9] (M/F, C57BL/6, P0: Operant test (fixed interval schedule, index of curvature, last block) + P0: Operant test (fixed interval schedule, index of curvature, …); 20 mg/kg-day with Mus musculus [9] (M/F, C57BL/6, P0: Operant test (fixed interval schedule, overall response rate, first block) + P0: Operant test (fixed interval schedule, overall response…); 10 mg/kg-day with Mus musculus [9] (M, Apoe3, P0: Morris water maze (swim distance in target quadrant)); 20 mg/kg-day in the data set on Mus musculus [9] (M, Swiss Albino, P0: Morris water maze (latency, last trial) + P0: Morris water maze (latency, significant trial) + P0: Morris water maze (time spent in …); 1000 mg/kg-day in the data set with Rattus norvegicus [10] (M/F, Crl:CD(SD), F1: Water T maze (learning error)); 30 mg/kg-day in the data set on Rattus norvegicus [10] (M, Sprague-Dawley, F1: Morris water maze (latency, last trial) + F1: Morris water maze (latency, significant trial)).

With `[Lu]` [Lutetium], the NOAEL in the data set with Rattus norvegicus [8] (subchronic, duration: 90 days, CRW) is 504 mg/kg-day.

In the data set with Rattus norvegicus [3] (setting [16]), `CC[C@H](C)[C@H]1O[C@]2(C=C[C@@H]1C)C[C@@H]1C[C@@H](C/C=C(\C)[C@@H](O[C@H]3C[C@H](OC)[C@@H](O[C@H]4C[C@H](OC)[C@@H](O)[C@H](C)O4)[C@H](C)O3)[C@@H](C)/C=C/C=C3\CO[C@@H]4[C@H](O)C(C)=C[C@@H](C(=O)O1)[C@]34O)O2` [Avermectin B1a] had an LOAEL of 0.4 mg/kg-day and an NOAEL of 0.12 mg/kg-day. For the same compound, in the data set on Rattus norvegicus [3] (setting [17]), the LOAEL was 0.4 mg/kg-day and the no observed adverse effect level (NOAEL) was determined as 0.12 mg/kg-day. Also, in the data set on Rattus norvegicus [6] (setting [18]), the LEL amounted to 0.4 mg/kg-day and the NOEL was found to be 0.12 mg/kg-day.
